Laboratory results reported in ChEMBL document CHEMBL4665869, “New thiazolopyrimidine as anticancer agents: Synthesis, biological evaluation, DNA binding, molecular modeling and ADMET study” (Bioorg Med Chem Lett, 2020).

Legend:
MDA-MB-468 = assay: Growth inhibition of human MDA-MB-468 cells at 10 uM relative to control; format: functional; conditions: read-out: GI
HCC 2998 = assay: Growth inhibition of human HCC 2998 cells at 10 uM relative to control; format: functional; conditions: read-out: GI
TK-10 = assay: Growth inhibition of human TK-10 cells at 10 uM relative to control; format: functional; conditions: read-out: GI
M14 = assay: Growth inhibition of human M14 cells at 10 uM relative to control; format: functional; conditions: read-out: GI
U-251 = assay: Growth inhibition of human U-251 cells at 10 uM relative to control; format: functional; conditions: read-out: GI
ACHN = assay: Growth inhibition of human ACHN cells at 10 uM relative to control; format: functional; conditions: read-out: GI
SNB-75 = assay: Growth inhibition of human SNB-75 cells at 10 uM relative to control; format: functional; conditions: read-out: GI
MCF7 = assay: Growth inhibition of human MCF7 cells at 10 uM relative to control; format: functional; conditions: read-out: GI
HOP-62 = assay: Growth inhibition of human HOP-62 cells at 10 uM relative to control; format: functional; conditions: read-out: GI
UO-31 = assay: Growth inhibition of human UO-31 cells at 10 uM relative to control; format: functional; conditions: read-out: GI
MDA-MB-435 = assay: Growth inhibition of human MDA-MB-435 cells at 10 uM relative to control; format: functional; conditions: read-out: GI
SF-539 = assay: Growth inhibition of human SF-539 cells at 10 uM relative to control; format: functional; conditions: read-out: GI
NCI-H226 = assay: Growth inhibition of human NCI-H226 cells at 10 uM relative to control; format: functional; conditions: read-out: GI
MDA-MB-231 = assay: Growth inhibition of human MDA-MB-231 cells at 10 uM relative to control; format: functional; conditions: read-out: GI
SNB-19 = assay: Growth inhibition of human SNB-19 cells at 10 uM relative to control; format: functional; conditions: read-out: GI
HCT-116 = assay: Growth inhibition of human HCT-116 cells at 10 uM relative to control; format: functional; conditions: read-out: GI
CCRF-CEM = assay: Growth inhibition of human CCRF-CEM cells at 10 uM relative to control; format: functional; conditions: read-out: GI
COLO 205 = assay: Growth inhibition of human COLO 205 cells at 10 uM relative to control; format: functional; conditions: read-out: GI
NCI-H460 = assay: Growth inhibition of human NCI-H460 cells at 10 uM relative to control; format: functional; conditions: read-out: GI
OVCAR-4 = assay: Growth inhibition of human OVCAR-4 cells at 10 uM relative to control; format: functional; conditions: read-out: GI
RPMI-8226 = assay: Growth inhibition of human RPMI-8226 cells at 10 uM relative to control; format: functional; conditions: read-out: GI
OVCAR-5 = assay: Growth inhibition of human OVCAR-5 cells at 10 uM relative to control; format: functional; conditions: read-out: GI
NCI-H23 = assay: Growth inhibition of human NCI-H23 cells at 10 uM relative to control; format: functional; conditions: read-out: GI
SN12C = assay: Growth inhibition of human SN12C cells at 10 uM relative to control; format: functional; conditions: read-out: GI
KM12 = assay: Growth inhibition of human KM12 cells at 10 uM relative to control; format: functional; conditions: read-out: GI
NCI/ADR-RES = assay: Growth inhibition of human NCI/ADR-RES cells at 10 uM relative to control; format: functional; conditions: read-out: GI
SK-MEL-28 = assay: Growth inhibition of human SK-MEL-28 cells at 10 uM relative to control; format: functional; conditions: read-out: GI
T47D = assay: Growth inhibition of human T47D cells at 10 uM relative to control; format: functional; conditions: read-out: GI
K562 = assay: Growth inhibition of human K562 cells at 10 uM relative to control; format: functional; conditions: read-out: GI
UACC-257 = assay: Growth inhibition of human UACC-257 cells at 10 uM relative to control; format: functional; conditions: read-out: GI
BT-549 = assay: Growth inhibition of human BT-549 cells at 10 uM relative to control; format: functional; conditions: read-out: GI
UACC-62 = assay: Growth inhibition of human UACC-62 cells at 10 uM relative to control; format: functional; conditions: read-out: GI
A549 = assay: Growth inhibition of human A549 cells at 10 uM relative to control; format: functional; conditions: read-out: GI
SW-620 = assay: Growth inhibition of human SW-620 cells at 10 uM relative to control; format: functional; conditions: read-out: GI
SF-295 = assay: Growth inhibition of human SF-295 cells at 10 uM relative to control; format: functional; conditions: read-out: GI
SK-MEL-5 = assay: Growth inhibition of human SK-MEL-5 cells at 10 uM relative to control; format: functional; conditions: read-out: GI
RXF 393 = assay: Growth inhibition of human RXF 393 cells at 10 uM relative to control; format: functional; conditions: read-out: GI
SR = assay: Growth inhibition of human SR cells at 10 uM relative to control; format: functional; conditions: read-out: GI
NCI-H522 = assay: Growth inhibition of human NCI-H522 cells at 10 uM relative to control; format: functional; conditions: read-out: GI
LOX IMVI = assay: Growth inhibition of human LOX IMVI cells at 10 uM relative to control; format: functional; conditions: read-out: GI
SF-268 = assay: Growth inhibition of human SF-268 cells at 10 uM relative to control; format: functional; conditions: read-out: GI
HL-60(TB) = assay: Growth inhibition of human HL-60(TB) cells at 10 uM relative to control; format: functional; conditions: read-out: GI
786-0 = assay: Growth inhibition of human 786-0 cells at 10 uM relative to control; format: functional; conditions: read-out: GI
IGROV-1 = assay: Growth inhibition of human IGROV-1 cells at 10 uM relative to control; format: functional; conditions: read-out: GI
PC-3 = assay: Growth inhibition of human PC-3 cells at 10 uM relative to control; format: functional; conditions: read-out: GI
CAKI-1 = assay: Growth inhibition of human CAKI-1 cells at 10 uM relative to control; format: functional; conditions: read-out: GI
Malme-3M = assay: Growth inhibition of human Malme-3M cells at 10 uM relative to control; format: functional; conditions: read-out: GI
A498 = assay: Growth inhibition of human A498 cells at 10 uM relative to control; format: functional; conditions: read-out: GI
DU-145 = assay: Growth inhibition of human DU-145 cells at 10 uM relative to control; format: functional; conditions: read-out: GI
HT-29 = assay: Growth inhibition of human HT-29 cells at 10 uM relative to control; format: functional; conditions: read-out: GI
OVCAR-8 = assay: Growth inhibition of human OVCAR-8 cells at 10 uM relative to control; format: functional; conditions: read-out: GI
DNA = assay: Displacement of methyl green from DNA (unknown origin) assessed as DNA intercalation after 24 hrs by colorimetric assay; format: nucleic-acid assay
Hs-578T = assay: Growth inhibition of human Hs-578T cells at 10 uM relative to control; format: functional; conditions: read-out: GI
NCI-H322M = assay: Growth inhibition of human NCI-H322M cells at 10 uM relative to control; format: functional; conditions: read-out: GI
SK-MEL-2 = assay: Growth inhibition of human SK-MEL-2 cells at 10 uM relative to control; format: functional; conditions: read-out: GI
HCT-15 = assay: Growth inhibition of human HCT-15 cells at 10 uM relative to control; format: functional; conditions: read-out: GI
SK-OV-3 = assay: Growth inhibition of human SK-OV-3 cells at 10 uM relative to control; format: functional; conditions: read-out: GI
HOP-92 = assay: Growth inhibition of human HOP-92 cells at 10 uM relative to control; format: functional; conditions: read-out: GI
MOLT-4 = assay: Growth inhibition of human MOLT-4 cells at 10 uM relative to control; format: functional; conditions: read-out: GI

CC1=CN2C(=NC(/C=C/c3ccc(Cl)cc3)=CC2c2ccc(Cl)cc2)S1 (centres undefined)
12.3%: inhibition of growth at 10 µM (A498)
< 10%: inhibition of growth at 10 µM (MDA-MB-468) | inhibition of growth at 10 µM (HCC 2998) | inhibition of growth at 10 µM (TK-10) | inhibition of growth at 10 µM (M14) | inhibition of growth at 10 µM (U-251) | inhibition of growth at 10 µM (ACHN) | inhibition of growth at 10 µM (MCF7) | inhibition of growth at 10 µM (HOP-62) | inhibition of growth at 10 µM (UO-31) | inhibition of growth at 10 µM (MDA-MB-435) | inhibition of growth at 10 µM (SF-539) | inhibition of growth at 10 µM (NCI-H226) | inhibition of growth at 10 µM (MDA-MB-231) | inhibition of growth at 10 µM (SNB-19) | inhibition of growth at 10 µM (HCT-116) | inhibition of growth at 10 µM (CCRF-CEM) | inhibition of growth at 10 µM (COLO 205) | inhibition of growth at 10 µM (NCI-H460) | inhibition of growth at 10 µM (OVCAR-4) | inhibition of growth at 10 µM (RPMI-8226) | inhibition of growth at 10 µM (OVCAR-5) | inhibition of growth at 10 µM (NCI-H23) | inhibition of growth at 10 µM (SN12C) | inhibition of growth at 10 µM (KM12) | inhibition of growth at 10 µM (NCI/ADR-RES) | inhibition of growth at 10 µM (SK-MEL-28) | inhibition of growth at 10 µM (T47D) | inhibition of growth at 10 µM (K562) | inhibition of growth at 10 µM (UACC-257) | inhibition of growth at 10 µM (BT-549) | inhibition of growth at 10 µM (UACC-62) | inhibition of growth at 10 µM (A549) | inhibition of growth at 10 µM (SW-620) | inhibition of growth at 10 µM (SF-295) | inhibition of growth at 10 µM (SK-MEL-5) | inhibition of growth at 10 µM (RXF 393) | inhibition of growth at 10 µM (SR) | inhibition of growth at 10 µM (NCI-H522) | inhibition of growth at 10 µM (LOX IMVI) | inhibition of growth at 10 µM (SF-268) | inhibition of growth at 10 µM (HL-60(TB)) | inhibition of growth at 10 µM (786-0) | inhibition of growth at 10 µM (IGROV-1) | inhibition of growth at 10 µM (PC-3) | inhibition of growth at 10 µM (CAKI-1) | inhibition of growth at 10 µM (Malme-3M) | inhibition of growth at 10 µM (DU-145) | inhibition of growth at 10 µM (HT-29) | inhibition of growth at 10 µM (OVCAR-8) | inhibition of growth at 10 µM (Hs-578T) | inhibition of growth at 10 µM (NCI-H322M) | inhibition of growth at 10 µM (SK-MEL-2) | inhibition of growth at 10 µM (HCT-15) | inhibition of growth at 10 µM (SK-OV-3) | inhibition of growth at 10 µM (HOP-92) | inhibition of growth at 10 µM (MOLT-4)
45.18 µg/mL: IC50 (DNA)
17.3%: inhibition of growth at 10 µM (SNB-75)
